Laboratory results taken from ChEMBL document CHEMBL5107949, “Design, synthesis, and antibacterial activity of N-(trifluoromethyl)phenyl substituted pyrazole derivatives” (RSC Med Chem, 2021).
Values after ≈ are worked out from the molar mass of the structure shown. Active and inactive are the calls of the source. The rule behind the calls is not given here.

Tests used:
Enterococcus faecalis [1] = assay: Inhibition of biofilm formation in Enterococcus faecalis ATCC 29212 at 12.5 ug/ml incubated for 24 hrs by Calgary biofilm device assay; assay type: functional
Staphylococcus aureus [2] = assay: Bactericidal activity against Staphylococcus aureus ATCC 700699 persisters assessed as log reduction in colony forming unit at 16 times MIC after 4 hrs by colony counting method; assay type: functional
Staphylococcus aureus [3] = assay: Antibacterial activity against antibiotic resistant Staphylococcus aureus ATCC 33591 assessed as inhibition of bacterial growth by CLSI protocol based broth microdilution method; assay type: functional
Staphylococcus aureus [4] = assay: Antibacterial activity against antibiotic susceptible Staphylococcus aureus ATCC 25923 assessed as inhibition of bacterial growth by CLSI protocol based broth microdilution method; assay type: functional
Staphylococcus aureus [5] = assay: Antibacterial activity against Staphylococcus aureus ATCC 25923 assessed as minimum bactericidal concentration incubated for 24 hrs by Calgary biofilm device assay; details: ATCC 25923, 24 h
Enterococcus faecalis [6] = assay: Anti-biofilm activity against Enterococcus faecalis ATCC 29212 assessed as eradication of biofilm formation incubated for 24 hrs by Calgary biofilm device assay; assay type: functional
Staphylococcus aureus [7] = assay: Inhibition of biofilm formation in Staphylococcus aureus ATCC 25923 at 3.125 to 12.5 ug/ml incubated for 24 hrs by Calgary biofilm device assay; assay type: functional, organism-based; details: dose 3.125-12.5 µg/ml, DDE = dose-dependent effect
Staphylococcus aureus [8] = assay: Bactericidal activity against Staphylococcus aureus ATCC 700699 persisters assessed as log reduction in colony forming unit at 16 times MIC measured for 4 hrs by time kill assay; assay type: functional
Staphylococcus aureus [9] = assay: Antibacterial activity against antibiotic resistant Staphylococcus aureus BAA-2312 assessed as inhibition of bacterial growth by CLSI protocol based broth microdilution method; assay type: functional
Staphylococcus aureus [10] = assay: Anti-biofilm activity against Staphylococcus aureus ATCC 25923 assessed as eradication of biofilm formation incubated for 24 hrs by Calgary biofilm device assay; assay type: functional
Enterococcus faecalis [11] = assay: Anti-biofilm activity against Enterococcus faecalis ATCC 29212 assessed as minimum bactericidal concentration incubated for 24 hrs by Calgary biofilm device assay; details: ATCC 29212, 24 h
Bacillus subtilis = assay: Antibacterial activity against antibiotic resistant Bacillus subtilis ATCC 6623 assessed as inhibition of bacterial growth by CLSI protocol based broth microdilution method; assay type: functional
Staphylococcus aureus [12] = assay: Bactericidal activity against Staphylococcus aureus ATCC 700699 persisters assessed as log reduction in colony forming unit at 2 to 32 times MIC measured for 4 hrs by time kill assay; assay type: functional, organism-based; details: DDE = dose-dependent effect
Staphylococcus aureus [13] = assay: Antibacterial activity against antibiotic resistant Staphylococcus aureus ATCC 33592 assessed as inhibition of bacterial growth by CLSI protocol based broth microdilution method; assay type: functional
[14] = system: Staphylococcus epidermidis; assay: Antibacterial activity against antibiotic resistant Staphylococcus epidermidis ATCC 700296 assessed as inhibition of bacterial growth by CLSI protocol based broth microdilution method; assay type: functional
Staphylococcus aureus [15] = assay: Bactericidal activity against Staphylococcus aureus ATCC 700699 assessed as bacteria elimination at 4 times MIC and measured after 6 hrs by time-kill assay; assay type: functional
Staphylococcus aureus [16] = assay: Antibacterial activity against antibiotic resistant Staphylococcus aureus ATCC 700699 assessed as inhibition of bacterial growth by CLSI protocol based broth microdilution method; assay type: functional
[17] = Cytotoxicity against human HEK293 cells reduction in cell viability incubated for 24 hrs by resazurin cell viability assay; assay type: toxicity, cell-based
Enterococcus faecalis [18] = assay: Antibacterial activity against antibiotic susceptible Enterococcus faecalis ATCC 29212 assessed as inhibition of bacterial growth by CLSI protocol based broth microdilution method; assay type: functional
Enterococcus faecium = assay: Antibacterial activity against vancomycin resistant Enterococcus faecium ATCC 700221 assessed as inhibition of bacterial growth by CLSI protocol based broth microdilution method; assay type: functional
Staphylococcus aureus [19] = assay: Bactericidal activity against Staphylococcus aureus ATCC 700699 persisters assessed as log reduction in colony forming unit at 32 times MIC measured for 4 hrs by time kill assay; assay type: functional
Enterococcus faecalis [20] = assay: Anti-biofilm activity against Enterococcus faecalis ATCC 29212 assessed as biofilm eradication at 3.125 to 12.5 ug/ml incubated for 24 hrs by Calgary biofilm device assay; assay type: functional, organism-based; details: dose 3.125-12.5 µg/ml
Staphylococcus aureus [21] = assay: Inhibition of RNA synthesis in Staphylococcus aureus ATCC 29213 at 8 times MIC preincubated for 30 mins followed by [3H]-uridine and measured after 30 mins by [3H]-uridine incorporation based beta scintillation counter analysis; assay type: functional; details: time 60 min; 1 h
Staphylococcus aureus [22] = assay: Inhibition of biofilm formation in Staphylococcus aureus ATCC 25923 at 12.5 ug/ml incubated for 24 hrs by Calgary biofilm device assay; assay type: functional
Enterococcus faecalis [23] = assay: Inhibition of biofilm formation in Enterococcus faecalis ATCC 29212 at 6.25 ug/ml incubated for 24 hrs by Calgary biofilm device assay; assay type: functional; details: dose 6.25 µg/ml
Staphylococcus aureus [24] = assay: Inhibition of DNA synthesis in Staphylococcus aureus ATCC 29213 at 8 times MIC preincubated for 30 mins followed by [3H]-thymidine and measured after 30 mins by [3H]-thymidine incorporation based beta scintillation counter analysis; assay type: functional; details: time 60 min; 1 h
Staphylococcus aureus [25] = assay: Inhibition of lipid synthesis in Staphylococcus aureus ATCC 29213 at 8 times MIC preincubated for 30 mins followed by [3H]-glycerol and measured after 50 mins by [3H]-glycerol incorporation based beta scintillation counter analysis; assay type: functional; details: time 80 min; 1.333 h

Structure (SMILES)	log(activity) (Staphylococcus aureus [2])	MIC (Staphylococcus aureus [3])	MIC (Staphylococcus aureus [4])	MBC (Staphylococcus aureus [5])	MBEC (Enterococcus faecalis [6])	inhibition (Staphylococcus aureus [7])	MIC (Staphylococcus aureus [9])	MBEC (Staphylococcus aureus [10])	MBC (Enterococcus faecalis [11])	MIC (Bacillus subtilis)	MIC (Staphylococcus aureus [13])	MIC [14]	Activity (Staphylococcus aureus [15])	MIC (Staphylococcus aureus [16])	IC50 at 24 h [17]	MIC (Enterococcus faecalis [18])	MIC (Enterococcus faecium)	Activity (Enterococcus faecalis [20])	other results
O=C(O)c1ccc(-c2nn(-c3ccc(C(F)(F)F)cc3)cc2CNc2ccc(Oc3ccccc3)cc2)cc1	>2	3.12 µg/mL (≈ 5.89 µM)	1.56 µg/mL (≈ 2.95 µM)	3.12 µg/mL (≈ 5.89 µM)	12.5 µg/mL	Dde	3.12 µg/mL (≈ 5.89 µM)	6.25 µg/mL	12.5 µg/mL (≈ 23.6 µM)	1.56 µg/mL (≈ 2.95 µM)	1.56 µg/mL (≈ 2.95 µM)	3.12 µg/mL (≈ 5.89 µM)	>99.9%	1.56 µg/mL (≈ 2.95 µM)	23.5 µg/mL (≈ 44.4 µM)	3.12 µg/mL (≈ 5.89 µM)	1.56 µg/mL (≈ 2.95 µM)	Active	inhibition at 12.5 µg/mL (Enterococcus faecalis [1]): 100%; log(activity) (Staphylococcus aureus [8]): 3; Activity (Staphylococcus aureus [12]): Dde; log(activity) (Staphylococcus aureus [19]): 3
CO[C@H]1/C=C/O[C@@]2(C)Oc3c(C)c(O)c4c(O)c(c(/C=N/N5CCN(C)CC5)c(O)c4c3C2=O)NC(=O)/C(C)=C\C=C\[C@H](C)[C@H](O)[C@@H](C)[C@@H](O)[C@@H](C)[C@H](OC(C)=O)[C@@H]1C [RIFAMPIN]																			inhibition (INH) (Staphylococcus aureus [21]): 76.3%
Cc1cc(NCc2cn(-c3ccc(C(F)(F)F)cc3)nc2-c2ccc(C(=O)O)cc2)ccc1Br	>2	6.25 µg/mL (≈ 11.8 µM)	3.12 µg/mL (≈ 5.88 µM)	12.5 µg/mL (≈ 23.6 µM)	25 µg/mL	Dde	3.12 µg/mL (≈ 5.88 µM)	12.5 µg/mL	12.5 µg/mL (≈ 23.6 µM)	1.56 µg/mL (≈ 2.94 µM)	3.12 µg/mL (≈ 5.88 µM)	12.5 µg/mL (≈ 23.6 µM)	>99.9%	1.56 µg/mL (≈ 2.94 µM)	> 12 µg/mL	6.25 µg/mL (≈ 11.8 µM)	3.12 µg/mL (≈ 5.88 µM)	Active	inhibition (Enterococcus faecalis [1]; dose 12.5 µg/ml): Active; inhibition at 12.5 µg/mL (Staphylococcus aureus [22]): > 90%; inhibition (Enterococcus faecalis [23]): Active
O=C(O)c1cn(C2CC2)c2cc(N3CCNCC3)c(F)cc2c1=O [CIPROFLOXACIN]																			inhibition (INH) (Staphylococcus aureus [24]): 86.2%
C/C=C/C/C=C/CCC(=O)[C@H]1O[C@H]1C(N)=O [CERULENIN]																			inhibition (INH) (Staphylococcus aureus [25]): 71.9%
